Assay results: ChEMBL document CHEMBL6153150, “Design, Synthesis, and Biological Evaluation of Chiral-Proline Derivatives as Novel HSP90 Inhibitors” (ACS Med Chem Lett, 2025)

Key:
K562 = test: Antiproliferative activity against human K562 cells assessed as cell viability inhibition rate incubated for 72 hr by MTT assay; type: functional, cell-based; conditions: K562, 72 h
A549 = test: Antiproliferative activity against human A549 cells assessed as cell viability inhibition rate incubated for 72 hr by MTT assay; type: functional, cell-based; conditions: A549, 72 h
SK-BR-3 = test: Antiproliferative activity against human SK-BR-3 cells assessed as cell viability inhibition rate incubated for 72 hr by MTT assay; type: functional, cell-based; conditions: SK-BR-3, 72 h
Heat shock protein HSP90 = Heat shock protein HSP90 (Homo sapiens, UniProt P07900+P08238); test: Binding affinity to Hsp90 (unknown origin) assessed as dissociation constant incubated for 30 mins by fluorescence spectrophotometric analysis; type: protein assay
HCT-116 = test: Antiproliferative activity against human HCT-116 cells assessed as cell viability inhibition rate incubated for 72 hr by MTT assay; type: functional, cell-based; conditions: HCT-116, 72 h
MCF7 = test: Antiproliferative activity against human MCF7 cells assessed as cell viability inhibition rate incubated for 72 hr by MTT assay; type: functional, cell-based; conditions: MCF7, 72 h

Compound | IC50 (K562) [nM] | IC50 (A549) [nM] | IC50 (SK-BR-3) [nM] | Kd (Heat shock protein HSP90) [nM] | IC50 (HCT-116) [nM] | IC50 (MCF7) [nM]
CCOCCCNC(=O)[C@H]1C[C@H](c2ccccc2)CN1C(=O)c1cc(C2CC2)c(O)cc1O | 504 | 203 | 733 | 937 | 1010 | 183
COCCN(CCOC)C(=O)[C@H]1C[C@H](c2ccccc2)CN1C(=O)c1cc(C2CC2)c(O)cc1O | 596 | 163 | 761 | 637 | 795 | 336
CC(C)c1cc(C(=O)N2C[C@@H](c3ccccc3)C[C@@H]2C(=O)N2CCN(CC3CC3)CC2)c(O)cc1O |  |  |  | 862 |  | 
CC(C)c1cc(C(=O)N2C[C@@H](c3ccccc3)C[C@@H]2C(=O)NCc2ccccc2F)c(O)cc1O | 631 | 71 | 462 | 231 | 376 | 87
CC(C)c1cc(C(=O)N2C[C@@H](c3ccccc3)C[C@@H]2C(=O)N2CCN(c3ncccn3)CC2)c(O)cc1O |  |  |  | 1631 |  | 
CCCN(CCC)C(=O)[C@H]1C[C@H](c2ccccc2)CN1C(=O)c1cc(C(C)C)c(O)cc1O |  |  |  | 2516 |  | 
CC(C)OCCCNC(=O)[C@H]1C[C@H](c2ccccc2)CN1C(=O)c1cc(C(C)C)c(O)cc1O |  |  |  | 202 |  | 
CC(C)c1cc(C(=O)N2C[C@@H](c3ccccc3)C[C@@H]2C(=O)N(C)C2CCCCC2)c(O)cc1O |  |  |  | 1762 |  | 
COc1ccc(C(C)NC(=O)[C@H]2C[C@H](c3ccccc3)CN2C(=O)c2cc(C3CC3)c(O)cc2O)cc1 (some centres not stated) | 667 | 82 | 451 | 263 | 641 | 126
CC(C)c1cc(C(=O)N2C[C@@H](c3ccccc3)C[C@@H]2C(=O)N2CCCC2)c(O)cc1O |  |  |  | 2033 |  | 
CC(C)c1cc(C(=O)N2C[C@@H](c3ccccc3)C[C@@H]2C(=O)NC2CC2)c(O)cc1O |  |  |  | 1213 |  | 
COCCNC(=O)[C@H]1C[C@H](c2ccccc2)CN1C(=O)c1cc(C(C)C)c(O)cc1O |  |  |  | 188 |  | 
COCCN1CCN(C(=O)[C@H]2C[C@H](c3ccccc3)CN2C(=O)c2cc(C(C)C)c(O)cc2O)CC1 |  |  |  | 637 |  | 
CC(C)CN(C)C(=O)[C@H]1C[C@H](c2ccccc2)CN1C(=O)c1cc(C(C)C)c(O)cc1O |  |  |  | 1573 |  | 
CC(C)c1cc(C(=O)N2C[C@@H](c3ccccc3)C[C@@H]2C(=O)NC(C)c2ccccc2)c(O)cc1O (some centres not stated) | 621 | 87 | 703 | 232 | 514 | 113
CC(C)c1cc(C(=O)N2C[C@@H](c3ccccc3)C[C@@H]2C(=O)N2CCCCC2C)c(O)cc1O (some centres not stated) |  |  |  | 2171 |  | 
CC(C)c1cc(C(=O)N2C[C@@H](c3ccccc3)C[C@@H]2C(=O)N2CCN(C)CC2)c(O)cc1O |  |  |  | 2310 |  | 
CC(C)NC(=O)[C@H]1C[C@H](c2ccccc2)CN1C(=O)c1cc(C(C)C)c(O)cc1O |  |  |  | 1237 |  | 
CC(C)c1cc(C(=O)N2C[C@@H](c3ccccc3)C[C@@H]2C(=O)N2CCC(OCC3CC3)CC2)c(O)cc1O |  |  |  | 1632 |  | 

Compound | IC50 (K562) [nM] | IC50 (A549) [nM] | IC50 (SK-BR-3) [nM] | Kd (Heat shock protein HSP90) [nM] | IC50 (HCT-116) [nM] | IC50 (MCF7) [nM]
CC(C)c1cc(C(=O)N2C[C@@H](c3ccccc3)C[C@@H]2C(=O)NC2CCCC2)c(O)cc1O |  |  |  | 876 |  | 
CC(C)CCNC(=O)[C@H]1C[C@H](c2ccccc2)CN1C(=O)c1cc(C(C)C)c(O)cc1O |  |  |  | 645 |  | 
CC(C)c1cc(C(=O)N2C[C@@H](c3ccccc3)C[C@@H]2C(=O)NCc2ccccc2Cl)c(O)cc1O | 633 | 72 | 572 | 351 | 461 | 103
CC(C)c1cc(C(=O)N2C[C@@H](c3ccccc3)C[C@@H]2C(=O)NCc2ccc3ccccc3n2)c(O)cc1O | 531 | 78 | 634 | 432 | 537 | 87
CC(C)c1cc(C(=O)N2C[C@@H](c3ccccc3)C[C@@H]2C(=O)NC(C)C(C)C)c(O)cc1O (some centres not stated) | 566 | 130 | 738 | 345 | 637 | 185
O=C(NCc1ccccc1)[C@H]1C[C@H](c2ccccc2)CN1C(=O)c1cc(C2CC2)c(O)cc1O | 451 | 42 | 307 | 67 | 461 | 63
CC(C)c1cc(C(=O)N2C[C@@H](c3ccccc3)C[C@@H]2C(=O)NC2CCCCC2)c(O)cc1O |  |  |  | 1076 |  | 
O=C(NCc1ccccc1F)[C@H]1C[C@H](c2ccccc2)CN1C(=O)c1cc(C2CC2)c(O)cc1O | 411 | 29 | 312 | 168 | 291 | 86
O=C(NCc1ccccc1Cl)[C@H]1C[C@H](c2ccccc2)CN1C(=O)c1cc(C2CC2)c(O)cc1O | 457 | 42 | 331 | 236 | 301 | 76
CC(C)CNC(=O)[C@H]1C[C@H](c2ccccc2)CN1C(=O)c1cc(C(C)C)c(O)cc1O | 539 | 63 | 653 | 165 | 435 | 87
O=C(c1ccc(O)cc1)N1Cc2ccccc2C1 |  |  |  | 4300 |  | 
CC(C)CNC(=O)[C@H]1C[C@H](c2ccccc2)CN1C(=O)c1cc(C2CC2)c(O)cc1O | 533 | 89 | 765 | 107 | 403 | 93
O=C(NCc1ccc(F)cc1F)[C@H]1C[C@H](c2ccccc2)CN1C(=O)c1cc(C2CC2)c(O)cc1O | 378 | 54 | 256 | 157 | 272 | 37
COCCN(CCOC)C(=O)[C@H]1C[C@H](c2ccccc2)CN1C(=O)c1cc(C(C)C)c(O)cc1O | 703 | 301 | 877 | 783 | 731 | 375
CC(C)c1cc(C(=O)N2C[C@@H](c3ccccc3)C[C@@H]2C(=O)NCC2CC2)c(O)cc1O |  |  |  | 354 |  | 
CC(C)c1cc(C(=O)N2C[C@@H](c3ccccc3)C[C@@H]2C(=O)N2CCC(N3CCCCC3)CC2)c(O)cc1O |  |  |  | 983 |  | 
CCOCCNC(=O)[C@H]1C[C@H](c2ccccc2)CN1C(=O)c1cc(C(C)C)c(O)cc1O |  |  |  | 124 |  | 
CCCCCNC(=O)[C@H]1C[C@H](c2ccccc2)CN1C(=O)c1cc(C(C)C)c(O)cc1O |  |  |  | 2161 |  | 
O=C(NCc1ccccn1)[C@H]1C[C@H](c2ccccc2)CN1C(=O)c1cc(C2CC2)c(O)cc1O | 876 | 67 | 351 | 57 | 263 | 47

Compound | IC50 (K562) [nM] | IC50 (A549) [nM] | IC50 (SK-BR-3) [nM] | Kd (Heat shock protein HSP90) [nM] | IC50 (HCT-116) [nM] | IC50 (MCF7) [nM]
CCCCNC(=O)[C@H]1C[C@H](c2ccccc2)CN1C(=O)c1cc(C(C)C)c(O)cc1O |  |  |  | 1873 |  | 
COc1ccc(CNC(=O)[C@H]2C[C@H](c3ccccc3)CN2C(=O)c2cc(C3CC3)c(O)cc2O)cc1 | 561 | 113 | 631 | 168 | 631 | 167
CC(C)c1cc(C(=O)N2C[C@@H](c3ccccc3)C[C@@H]2C(=O)NCCCn2ccnc2)c(O)cc1O |  |  |  | 1376 |  | 
COc1ccc(C(C)NC(=O)[C@H]2C[C@H](c3ccccc3)CN2C(=O)c2cc(C(C)C)c(O)cc2O)cc1 (some centres not stated) | 533 | 172 | 721 | 463 | 652 | 170
CC(C)c1cc(C(=O)N2C[C@@H](c3ccccc3)C[C@@H]2C(=O)NCc2ccccc2)c(O)cc1O | 471 | 39 | 267 | 87 | 303 | 61
CC(C)c1cc(C(=O)N2C[C@@H](c3ccccc3)C[C@@H]2C(=O)N2CCN(Cc3ccccc3)CC2)c(O)cc1O |  |  |  | 1033 |  | 
CC(C)c1cc(C(=O)N2C[C@@H](c3ccccc3)C[C@@H]2C(=O)N2CCCCC2)c(O)cc1O |  |  |  | 1337 |  | 
CCCN1CCN(C(=O)[C@H]2C[C@H](c3ccccc3)CN2C(=O)c2cc(C(C)C)c(O)cc2O)CC1 |  |  |  | 1033 |  | 
CC(C)c1cc(C(=O)N2C[C@@H](c3ccccc3)C[C@@H]2C(=O)N(C)Cc2ccccc2)c(O)cc1O |  |  |  | 2331 |  | 
CCN(C(=O)[C@H]1C[C@H](c2ccccc2)CN1C(=O)c1cc(C(C)C)c(O)cc1O)C(C)C |  |  |  | 2479 |  | 
CC(C)c1cc(C(=O)N2C[C@@H](c3ccccc3)C[C@@H]2C(=O)N2CCN(C(C)C)CC2)c(O)cc1O |  |  |  | 1021 |  | 
CCCCN(C)C(=O)[C@H]1C[C@H](c2ccccc2)CN1C(=O)c1cc(C(C)C)c(O)cc1O |  |  |  | 1637 |  | 
CC(C)c1cc(C(=O)N2C[C@@H](c3ccccc3)C[C@@H]2C(=O)N(C)C2CC2)c(O)cc1O |  |  |  | 1871 |  | 
CCNC(=O)[C@H]1C[C@H](c2ccccc2)CN1C(=O)c1cc(C(C)C)c(O)cc1O |  |  |  | 1132 |  | 
CCC1CCCCN1C(=O)[C@H]1C[C@H](c2ccccc2)CN1C(=O)c1cc(C(C)C)c(O)cc1O (some centres not stated) |  |  |  | 1677 |  | 
CCN(CC)CCNC(=O)[C@H]1C[C@H](c2ccccc2)CN1C(=O)c1cc(C(C)C)c(O)cc1O |  |  |  | 431 |  | 
CCN(C)C(=O)[C@H]1C[C@H](c2ccccc2)CN1C(=O)c1cc(C(C)C)c(O)cc1O |  |  |  | 1873 |  | 
CCCNC(=O)[C@H]1C[C@H](c2ccccc2)CN1C(=O)c1cc(C(C)C)c(O)cc1O |  |  |  | 1653 |  | 
CC1CCCN(C(=O)[C@H]2C[C@H](c3ccccc3)CN2C(=O)c2cc(C(C)C)c(O)cc2O)C1 (some centres not stated) |  |  |  | 2162 |  | 
